US20250380700A1, “HERBICIDAL COMBINATIONS AND A METHOD FOR CONTROLLING UNDESIRED VEGETATION” (UPL Mauritius Limited, priority 2022, published 2025)

Tested on: weedy Glycine max
Assay: Post-emergence herbicidal activity trial on weedy Glycine max (observed efficacy vs Colby expected efficacy)
Format: in vivo
Description: Methodology: Trials were conducted to evaluate the efficacy of the combination comprising L-glufosinate ammonium and additional herbicides on weedy Glycine max.
The soil used was sandy clay loam-sand: 68.0%; silt: 8.0%; clay: 24.0%.
All treatments were in 3 replications per treatment with a spray volume of about 150 L/ha.
The expected efficacy of a combination of L-glufosinate ammonium and the other herbicides was calculated using the well-established Colby method. Any difference between the observed and “expected” efficacy could be attributed to synergy between the two compounds.
In the Colby method, the expected (or predicted) response of a combination of herbicides is calculated by taking the product of the observed response for each individual component of the combination when applied alone, divided by 100, and subtracting this value from the sum of the observed response for each component when applied alone. An unexpected enhancement in efficacy of the combination is then determined by comparing the observed response of the combination to the expected (or predicted) response as calculated from the observed response of each individual component alone. If the observed response of the combination is greater than the expected (or predicted) response, or stated conversely, if the difference between the observed and expected response is greater than zero, then the combination is said to be synergistic or unexpectedly effective (Colby, S. R., Weeds, 1967(15), p. 20-22). The Colby method requires only a single dose of each herbicide applied alone and the mixture of both doses. The formula used to calculate the expected efficacy (EE) which was compared with the observed efficacy (OE) to determine the efficacy of the present disclosure is explained hereinbelow:
The expected efficacy for a combination of two active ingredients is as follows:
The expected efficacy for a combination of three active ingredients is as follows:
wherein, • A=Observed efficacy of active ingredient A at the same concentration as used in the mixture. • B=Observed efficacy of the active ingredient B at the same concentration as used in the mixture. • C=Observed efficacy of the active ingredient C at the same concentration as used in the mixture.

O=C(O)COc1nc(Cl)c(Cl)cc1Cl [Triclopyr]
Observed efficacy (%) of Triclopyr (228 g a.i./ha) (Example 2, Table 3, 3 DAA): 75%
Observed efficacy (%) of Triclopyr (228 g a.i./ha) (Example 2, Table 3, 7 DAA): 68%

CP(=O)(O)CC[C@H](N)C(=O)O.N [L-glufosinate ammonium]
Observed efficacy (%) of L-glufosinate ammonium (150 g a.i./ha) (Example 1, Table 2, 3 DAA, post-emergence): 65%
Observed efficacy (%) of L-glufosinate ammonium (150 g a.i./ha) (Example 1, Table 2, 7 DAA, post-emergence): 65%
Observed efficacy (%) of L-glufosinate ammonium (150 g a.i./ha) (Example 2, Table 3, 3 DAA): 50%
Observed efficacy (%) of L-glufosinate ammonium (150 g a.i./ha) (Example 2, Table 3, 7 DAA): 65%
Observed efficacy (%) of L-glufosinate ammonium (150 g a.i./ha) (Example 3, Table 4, 3 DAA): 50%
Observed efficacy (%) of L-glufosinate ammonium (150 g a.i./ha) (Example 3, Table 4, 7 DAA): 75%

O=C(O)COc1ccc(Cl)cc1Cl [2,4-D]
Observed efficacy (%) of 2,4-D (228 g a.i./ha) (Example 3, Table 4, 3 DAA): 50%
Observed efficacy (%) of 2,4-D (228 g a.i./ha) (Example 3, Table 4, 7 DAA): 60%

CC(C)N(C)S(=O)(=O)NC(=O)c1cc(-n2c(=O)cc(C(F)(F)F)n(C)c2=O)c(F)cc1Cl [Saflufenacil]
Observed efficacy (%) of Saflufenacil (30 g a.i./ha) (Example 1, Table 2, 3 DAA): 50%
Observed efficacy (%) of Saflufenacil (30 g a.i./ha) (Example 1, Table 2, 7 DAA): 70%
Observed efficacy (%) of Saflufenacil (30 g a.i./ha) (Example 2, Table 3, 3 DAA): 65%
Observed efficacy (%) of Saflufenacil (30 g a.i./ha) (Example 2, Table 3, 7 DAA): 70%
Observed efficacy (%) of Saflufenacil (30 g a.i./ha) (Example 3, Table 4, 3 DAA): 65%
Observed efficacy (%) of Saflufenacil (30 g a.i./ha) (Example 3, Table 4, 7 DAA): 75%
